Measured values as given in ChEMBL document CHEMBL3997848 (Bioorg Med Chem, 2017).
Square brackets hold non-standard residues; d marks the D form. Peptide text beside a SMILES is read from it.

What was measured:
[1] = molecular target: Mu opioid receptor-like OR2 (Danio rerio, UniProt B8JHS2); assay: Displacement of [3H]DPN from zebrafish mu opioid receptor expressed in HEK293 cell membranes after 1 hr by scintillation counting method
[2] = molecular target: Opioid receptor, delta 1b (Danio rerio, UniProt B3DH72); assay: Displacement of [3H]DPN from zebrafish delta 1b opioid receptor expressed in HEK293 cell membranes after 4 hrs by scintillation counting method
Opioid receptor, delta 1b, sequence (B3DH72 whole entry): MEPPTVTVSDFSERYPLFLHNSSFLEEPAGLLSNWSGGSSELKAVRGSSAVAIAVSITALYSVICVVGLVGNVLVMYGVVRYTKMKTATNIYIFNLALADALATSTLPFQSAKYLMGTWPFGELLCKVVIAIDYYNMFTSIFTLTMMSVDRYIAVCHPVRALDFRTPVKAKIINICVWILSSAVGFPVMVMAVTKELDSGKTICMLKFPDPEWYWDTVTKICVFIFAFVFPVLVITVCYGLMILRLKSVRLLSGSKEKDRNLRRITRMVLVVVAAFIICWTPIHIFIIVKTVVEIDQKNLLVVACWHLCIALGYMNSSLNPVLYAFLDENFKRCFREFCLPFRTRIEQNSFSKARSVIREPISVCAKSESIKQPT

Mus musculus [3] = assay: Antinociceptive activity in C57BL6/J mouse assessed as analgesia at 5 mg/kg, ip measured after 60 mins by tail flick test (reference value: 3%); format: functional
Mus musculus [4] = assay: Antinociceptive activity in C57BL6/J mouse assessed as analgesia at 8 mg/kg, ip measured after 90 mins by tail flick test (reference value: 10%); format: functional
Mus musculus [5] = assay: Antinociceptive activity in C57BL6/J mouse assessed as analgesia at 5 mg/kg, ip measured after 90 mins by tail flick test (reference value: 10%); format: functional
Mus musculus [6] = assay: Antinociceptive activity in C57BL6/J mouse assessed as analgesia at 8 mg/kg, ip measured after 60 mins by tail flick test (reference value: 3%); format: functional
[7] = molecular target: Opioid receptor homologue (Danio rerio, UniProt A3QJX7); assay: Displacement of [3H]DPN from zebrafish delta 1a opioid receptor expressed in HEK293 cell membranes after 1 hr by scintillation counting method
Opioid receptor homologue, sequence (A3QJX7 whole entry): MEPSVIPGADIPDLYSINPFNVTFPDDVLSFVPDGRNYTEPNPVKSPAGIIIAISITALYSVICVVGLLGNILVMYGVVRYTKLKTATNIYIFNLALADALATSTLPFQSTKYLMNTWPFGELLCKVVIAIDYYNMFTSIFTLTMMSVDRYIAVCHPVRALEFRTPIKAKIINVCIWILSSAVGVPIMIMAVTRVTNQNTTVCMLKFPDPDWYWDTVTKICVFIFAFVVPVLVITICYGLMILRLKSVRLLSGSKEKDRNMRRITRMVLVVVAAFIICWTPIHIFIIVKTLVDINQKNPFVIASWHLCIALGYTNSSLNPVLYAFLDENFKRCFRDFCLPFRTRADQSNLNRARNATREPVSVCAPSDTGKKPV

Mus musculus [8] = assay: Antinociceptive activity in C57BL6/J mouse assessed as analgesia at 8 mg/kg, ip measured after 30 mins by tail flick test (reference value: -7%); format: functional
Mus musculus [9] = assay: Antinociceptive activity in C57BL6/J mouse assessed as analgesia at 5 mg/kg, ip measured after 120 mins by tail flick test (reference value: -8%); format: functional
Mus musculus [10] = assay: Antinociceptive activity in C57BL6/J mouse assessed as analgesia at 8 mg/kg, ip measured after 120 mins by tail flick test (reference value: -8%); format: functional
Mus musculus [11] = assay: Antinociceptive activity in C57BL6/J mouse assessed as analgesia at 5 mg/kg, ip measured after 30 mins by tail flick test (reference value: -7%); format: functional

Mu opioid receptor-like OR2, sequence (B8JHS2 whole entry): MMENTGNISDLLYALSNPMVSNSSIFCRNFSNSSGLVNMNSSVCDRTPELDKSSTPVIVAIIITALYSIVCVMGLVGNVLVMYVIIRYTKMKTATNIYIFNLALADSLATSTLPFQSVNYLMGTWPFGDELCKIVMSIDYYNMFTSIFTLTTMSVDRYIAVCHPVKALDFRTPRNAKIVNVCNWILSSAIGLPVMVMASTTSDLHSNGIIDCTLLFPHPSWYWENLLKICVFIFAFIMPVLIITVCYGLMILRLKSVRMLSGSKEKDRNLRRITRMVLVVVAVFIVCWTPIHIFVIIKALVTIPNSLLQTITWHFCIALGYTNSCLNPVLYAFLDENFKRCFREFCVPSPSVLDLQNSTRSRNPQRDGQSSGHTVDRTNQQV

Row | Structure (SMILES) | Ki [1] | Ki [2] | Activity (Mus musculus [3]) | Activity (Mus musculus [4]) | Activity (Mus musculus [5]) | Activity (Mus musculus [6]) | Ki [7] | Activity (Mus musculus [8]) | Activity (Mus musculus [9]) | Activity (Mus musculus [10]) | Activity (Mus musculus [11])
1 | CSCC[C@H](NC(=O)[C@H](Cc1ccccc1)NC(=O)CNC(=O)CNC(=O)[C@@H](N)Cc1ccc(O)cc1)C(=O)O | 0.684 µM | 0.045 µM | – | – | – | – | – | – | – | – | –
2 | CSCC[C@@H](NC(=O)[C@@H](N)Cc1ccc(O)cc1)C(=O)NCC(=O)N[C@@H](Cc1ccccc1)C(=O)N1C[C@@H](O[C@H]2O[C@H](CO)[C@@H](O)[C@H](O)[C@@H]2O)C[C@H]1C(N)=O | 0.239 µM | 0.536 µM | 60% | 35% | 50% | 62% | 0.609 µM | 45% | 40% | 45% | 40%
3 | CSCC[C@@H](NC(=O)[C@@H](N)Cc1ccc(O)cc1)C(=O)NCC(=O)N[C@@H](Cc1ccccc1)C(=O)N1C[C@@H](O[C@@H]2O[C@H](CO)[C@@H](O)[C@H](O)[C@H]2O)C[C@H]1C(N)=O | 0.313 µM | 0.159 µM | – | – | – | – | 0.389 µM | – | – | – | –
4 | CSCC[C@@H](NC(=O)[C@@H](N)Cc1ccc(O)cc1)C(=O)NCC(=O)N[C@@H](Cc1ccccc1)C(=O)N1C[C@@H](O[C@@H]2O[C@H](CO)[C@@H](O[C@H]3O[C@@H](CO)[C@H](O)[C@@H](O)[C@@H]3O)[C@H](O)[C@H]2O)C[C@H]1C(N)=O | 0.223 µM | 0.528 µM | – | – | – | – | 0.843 µM | – | – | – | –
5 | CSCC[C@@H](NC(=O)[C@@H](N)Cc1ccc(O)cc1)C(=O)NCC(=O)N[C@@H](Cc1ccccc1)C(=O)N1C[C@@H](O[C@@H]2O[C@H](CO)[C@@H](O[C@H]3O[C@@H](CO)[C@@H](O)[C@@H](O)[C@@H]3O)[C@H](O)[C@H]2O)C[C@H]1C(N)=O | 0.203 µM | 0.559 µM | – | – | – | – | 0.635 µM | – | – | – | –
6 | CSCC[C@@H](NC(=O)[C@@H](N)Cc1ccc(O)cc1)C(=O)NCC(=O)N[C@@H](Cc1ccccc1)C(=O)N1C[C@@H](O[C@@H]2O[C@H](CO)[C@H](O)[C@H](O)[C@H]2O)C[C@H]1C(N)=O | 0.383 µM | 0.518 µM | – | – | – | – | 0.468 µM | – | – | – | –
7 | CSCC[C@@H](NC(=O)[C@@H](N)Cc1ccc(O)cc1)C(=O)NCC(=O)N[C@@H](Cc1ccccc1)C(=O)N1CCC[C@H]1C(N)=O (H-Y[dM]GFP-NH2) | 0.269 µM | 0.256 µM | – | – | – | – | 0.566 µM | – | – | – | –
8 | CN1CC[C@]23c4c5ccc(O)c4O[C@H]2[C@@H](O)C=C[C@H]3[C@H]1C5 [MORPHINE] | – | – | 51% | – | 45% | – | – | – | 30% | – | 30%
